Laboratory results from ChEMBL document CHEMBL4196045, “Identification of cisapride as new inhibitor of putrescine uptake in Trypanosoma cruzi by combined ligand- and structure-based virtual screening” (Eur J Med Chem, 2018).
Activity calls are given as the source filed them. The rule behind the calls is not given here.

Tests used:
[1] = target: T1, Putative amino acid transporter PAT12 (Trypanosoma cruzi) (UniProt Q6QT93); experiment: Inhibition of Trypanosoma cruzi Y epimastigotes PAT12 assessed as reduction in initial velocity of [14C]-putrescine uptake at 50 uM in presence of non-radioactive putrescine by liquid scintillation counting method
T1 sequence (whole entry): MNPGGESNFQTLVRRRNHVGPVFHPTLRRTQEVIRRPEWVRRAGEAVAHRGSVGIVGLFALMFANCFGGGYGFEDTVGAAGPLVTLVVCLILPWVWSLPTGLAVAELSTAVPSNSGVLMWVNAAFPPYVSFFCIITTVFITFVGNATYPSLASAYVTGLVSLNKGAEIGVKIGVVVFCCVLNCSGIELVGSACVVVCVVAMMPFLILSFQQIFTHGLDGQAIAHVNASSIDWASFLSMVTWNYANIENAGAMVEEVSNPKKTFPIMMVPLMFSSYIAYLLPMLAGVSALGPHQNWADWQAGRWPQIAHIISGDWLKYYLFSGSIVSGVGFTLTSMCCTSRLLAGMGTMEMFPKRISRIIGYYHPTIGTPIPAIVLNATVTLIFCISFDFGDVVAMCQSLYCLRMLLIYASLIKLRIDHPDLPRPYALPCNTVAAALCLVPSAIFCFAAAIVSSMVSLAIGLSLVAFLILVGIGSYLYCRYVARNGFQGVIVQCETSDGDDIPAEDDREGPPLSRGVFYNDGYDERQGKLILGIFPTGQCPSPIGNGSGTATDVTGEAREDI

[2] = system: Trypanosoma cruzi; experiment: Antitrypanosomal activity against Trypanosoma cruzi Y epimastigotes at 200 uM after 7 days by hemocytometry; format: functional, organism-based
[3] = system: Trypanosoma cruzi; experiment: Antitrypanosomal activity against Trypanosoma cruzi Y epimastigotes at 100 uM after 7 days by hemocytometry; format: functional, organism-based
[4] = system: Trypanosoma cruzi; experiment: Antitrypanosomal activity against Trypanosoma cruzi Y epimastigotes after 7 days by hemocytometry; format: functional, organism-based; settings: 168 h
[5] = system: Trypanosoma cruzi; experiment: Inhibition of Trypanosoma cruzi Y epimastigotes AAAP411 assessed as reduction in [1,4-14C]-arginine uptake in presence of non-radioactive arginine by liquid scintillation counting method

| Compound | inhibition [1] | Activity [2] | Activity [3] | IC50 [4] | inhibition [5] |
| --- | --- | --- | --- | --- | --- |
| CN(CCCOc1ccc2c(c1)OCO2)C1CCC(CO)CC1 (stereo not drawn) | inactive | inactive |  |  |  |
| NCc1ccccc1OC1CCCC1 | inactive |  | Active | 41.1 µM | inactive |
| Cc1cccc(C)c1OCC(C)N (racemic) | inactive | inactive |  |  |  |
